Our source for the EC50 values is patent publication US20240092770A1, “Heterocycle RMB39 Modulators” (Recursion Pharmaceuticals, Inc., priority 2022, published 2024).

The structures appear in SMILES notation. pEC50: −log10 of the molar value.

The target in the assay is RBM39 and the DCAF15 complex (RBM39-Flag / His-DCAF15-DDA1-DDB1) (Homo sapiens (Human), UniProt Q14498+Q66K64). The assay can be described thus: DCAF15 RBM39 complex formation TR-FRET assay. It counts as binding. Conditions: RBM39(R150-D331) 3xFlag 50 nM, His-DCAF15-DDA1-DDB1 10 nM, 60 min room temperature. On the procedure: A TR-FRET assay was used to assess the effect of compounds disclosed herein on the interaction between RBM39 and the DCAF15 complex. Test compounds were dissolved to form a 10 mM DMSO stock solution. A 45 μL aliquot of the stock solution was transferred to a 384 pp-plate, and a threefold, 8-point dilution was performed via transferring 15 μL compound solution into 30 μL of DMSO. The plates were then spun at room temperature at 1,000 RPM for 1 minute.
A 30 nL aliquot of the diluted compound was transferred to a 384 well plate, which was incubated at room temperature for 15 minutes. Next, Solutions 1, 2, and 3 were prepared as described in the below tables. A 5 μL aliquot of Solution 2 was added to each well, followed by 5 μL of Solution 3 to start the reaction. The final volume of each well was 10 μL. The plates were incubated at room temperature for 60 minutes, and then read.
Next, an RBM39 (R150-D331) 3× Flag used in TR-FRET assay was prepared:
Recombinant RBM39 protein is composed of the R1R2 of RBM39 (aa 150 to 331; UniProt: Q14498). The coding sequence was sub-cloned into pGEX4T-1-RBM39-flag vector, expressed as a GST-fusion protein with N-terminal TEV protease cleavage site. A 3× Flag tag was added to the C-terminal of R1R2 used in a FRET assay.
Take `Cc1ccc(NS(=O)(=O)c2ncc(CCO)s2)c2[nH]cc(C#N)c12` [Compound 44]: the pEC50 is 6.04.

Consider `Cc1ccc(NS(=O)(=O)c2nc(C(=O)N3CCNCC3)cs2)c2[nH]cc(C#N)c12` [Compound 78], for which the negative-log EC50 (pEC50) is 5.49.

Take `Cc1ccc(NS(=O)(=O)c2nc(C(=O)NCCO)cs2)c2[nH]cc(C#N)c12` [Compound 74]: the pEC50 was 5.84.

Turning to `N#Cc1c[nH]c2c(NS(=O)(=O)c3cnsn3)cccc12` [Compound 254], the negative-log EC50 (pEC50) was 5.41.

As for `Cc1ccc(NS(=O)(=O)c2nc(C(=O)N3CCN(C)CC3)cs2)c2[nH]cc(C#N)c12` [Compound 79], the pEC50 is 5.01.

For the compound `N#Cc1c[nH]c2c(NS(=O)(=O)c3nc(Cl)cs3)ccc(F)c12` [Compound 163], the pEC50 is 6.05.

On to `N#Cc1c[nH]c2c(NS(=O)(=O)c3csc(C(F)(F)F)n3)cccc12` [Compound 49], for which the negative-log EC50 (pEC50) is 6.72.

In turn, `Cc1ncc(S(=O)(=O)Nc2ccc(F)c3c(C#N)c[nH]c23)s1` [Compound 201] gave a pEC50 of 6.41.

In the case of `N#Cc1c[nH]c2c(NS(=O)(=O)c3cnc(C(F)(F)F)s3)cccc12` [Compound 34], the pEC50 is 6.52.

For the compound `Cc1sc(S(=O)(=O)Nc2ccc(C)c3c(C#N)c[nH]c23)nc1Br` [Compound 11], the negative logarithm of the EC50 (pEC50) is 6.97.

In turn, `Cc1ccc(NS(=O)(=O)c2ncc(-c3cc[nH]n3)s2)c2[nH]cc(C#N)c12` [Compound 69] had a negative logarithm of the EC50 (pEC50) of 6.38.

`Cc1cnc(S(=O)(=O)Nc2ccc(C)c3c(C#N)c[nH]c23)s1` [Compound 9] had a pEC50 of 6.36.

`N#Cc1c[nH]c2c(NS(=O)(=O)c3nc(C(F)(F)F)cs3)cccc12` [Compound 134]: the negative logarithm of the EC50 (pEC50) is 5.75.

Take `CNC(=O)c1csc(S(=O)(=O)Nc2ccc(C)c3c(C#N)c[nH]c23)n1` [Compound 58]: the pEC50 is 5.97.

Regarding `O=S(=O)(Nc1cccc2c(Cl)c[nH]c12)c1cncs1` [Compound 203], the negative logarithm of the EC50 (pEC50) is 6.23.

As to `CCc1ncc(S(=O)(=O)Nc2cccc3c(C#N)c[nH]c23)s1` [Compound 91], the negative logarithm of the EC50 (pEC50) is 7.12.

Compound `Cc1nc(S(=O)(=O)Nc2cccc3c(C#N)c[nH]c23)cs1` [Compound 153] gave a pEC50 of 6.03.

Compound `CCc1nc(S(=O)(=O)Nc2ccc(C)c3c(C#N)c[nH]c23)cn1CC(=O)O` [Compound 140] gave a negative logarithm of the EC50 (pEC50) of 5.18.

In turn, `N#Cc1c[nH]c2c(NS(=O)(=O)c3cnns3)cccc12` [Compound 255] showed a negative-log EC50 (pEC50) of 5.93.

Consider `Cc1ccc(NS(=O)(=O)c2ncc(C(=O)N3CCC(O)C3)s2)c2[nH]cc(C#N)c12` (stereo not shown) [Compound 143], for which the pEC50 is 5.67.

Regarding `CCc1nc(S(=O)(=O)Nc2cc(F)cc3c(C#N)c[nH]c23)c[nH]1` [Compound 157], the pEC50 was 5.73.

As to `COCCNC(=O)c1cnc(S(=O)(=O)Nc2ccc(C)c3c(C#N)c[nH]c23)s1` [Compound 142], the pEC50 was 5.71.

Compound `Cc1ccc(NS(=O)(=O)c2cnc(Br)s2)c2[nH]cc(C#N)c12` [Compound 40] had a pEC50 of 6.56.

For the compound `Cc1ccc(NS(=O)(=O)c2cnc(C(F)(F)F)s2)c2[nH]cc(C#N)c12` [Compound 24], the pEC50 was 6.57.

The compound `O=S(=O)(Nc1cccc2c(Cl)c[nH]c12)c1nccs1` [Compound 133] showed a negative logarithm of the EC50 (pEC50) of 5.57.

`Cc1nc(S(=O)(=O)Nc2ccc(C)c3c(C#N)c[nH]c23)cs1` [Compound 152]: the pEC50 was 6.55.

On to `O=S(=O)(Nc1cccc2c(C(F)(F)F)c[nH]c12)c1cncs1` [Compound 186], for which the pEC50 is 6.59.

On to `O=S(=O)(Nc1cc(F)cc2c(Cl)c[nH]c12)c1nc(C(F)(F)F)cs1` [Compound 149], for which the negative-log EC50 (pEC50) is 6.05.

In the case of `Cc1ccc(NS(=O)(=O)c2ncc(C(=O)N(C)C)s2)c2[nH]cc(C#N)c12` [Compound 127], the pEC50 was 6.02.

Take `Cc1ccc(NS(=O)(=O)c2ncc(-c3ccccn3)s2)c2[nH]cc(C#N)c12` [Compound 37]: the negative logarithm of the EC50 (pEC50) was 6.37.

For `N#Cc1c[nH]c2c(NS(=O)(=O)c3nccs3)cccc12` [Compound 27], the pEC50 is 5.55.

In turn, `Cc1ccc(NS(=O)(=O)c2nc(C(F)(F)F)cs2)c2[nH]cc(C#N)c12` [Compound 12, N-(3-cyano-4-methyl-1H-indol-7-yl)-4-(trifluoromethyl)-1,3-thiazole-2-sulfonamide] showed a negative-log EC50 (pEC50) of 6.42.

For `Cc1ccc(NS(=O)(=O)c2ncc(P(C)(C)=O)s2)c2[nH]cc(C#N)c12` [Compound 111, N-(3-cyano-4-methyl-1H-indol-7-yl)-5-(dimethylphosphoryl)thiazole-2-sulfonamide], the negative logarithm of the EC50 (pEC50) is 5.79.

With `Cc1ccc(NS(=O)(=O)c2cncs2)c2[nH]cc(C#N)c12` [Compound 42], the pEC50 is 7.26.

`Cc1ccc(NS(=O)(=O)c2cnc(Cl)s2)c2[nH]cc(C#N)c12` [Compound 7]: the pEC50 is 6.97.

As for `Cc1ccc(NS(=O)(=O)c2cncs2)c2[nH]cc(C(F)(F)F)c12` [Compound 198], the pEC50 was 7.33.

Regarding `CCc1nc(S(=O)(=O)Nc2ccc(C)c3c(C#N)c[nH]c23)c[nH]1` [Compound 8, N-(3-cyano-4-methyl-1H-indol-7-yl)-2-ethyl-1H-imidazole-4-sulfonamide], the pEC50 is 6.10.

`Cc1ccc(NS(=O)(=O)c2ncc(C(=O)NCCO)s2)c2[nH]cc(C#N)c12` [Compound 129] had a negative-log EC50 (pEC50) of 5.74.

`CC(C)(C)c1cc(S(=O)(=O)Nc2cccc3c(C#N)c[nH]c23)on1` [Compound 104] had a pEC50 of 6.89.

`Cc1ccc(NS(=O)(=O)c2cc(C(C)C)no2)c2[nH]cc(C#N)c12` [Compound 135]: the pEC50 is 7.33.

For `CCCn1cnc(S(=O)(=O)Nc2ccc(C)c3c(C#N)c[nH]c23)c1` [Compound 162], the pEC50 was 6.23.

`Cc1ccc(NS(=O)(=O)c2csc(C(F)(F)F)n2)c2[nH]cc(C#N)c12` [Compound 47] had a pEC50 of 7.01.

For the compound `N#Cc1c[nH]c2c(NS(=O)(=O)c3nc(C(F)(F)F)cs3)ccc(F)c12` [Compound 148], the negative logarithm of the EC50 (pEC50) was 5.88.

`CCN(CC)C(=O)c1csc(S(=O)(=O)Nc2ccc(C)c3c(C#N)c[nH]c23)n1` [Compound 73] showed a negative-log EC50 (pEC50) of 6.13.

As to `Cc1nc(Br)sc1S(=O)(=O)Nc1cccc2c(C#N)c[nH]c12` [Compound 109], the pEC50 is 5.68.

The compound `Cc1ccc(NS(=O)(=O)c2ncc(-c3cncnc3)s2)c2[nH]cc(C#N)c12` [Compound 67] had a pEC50 of 6.28.

In turn, `Cc1nc(S(=O)(=O)Nc2ccc(C)c3c(C#N)c[nH]c23)c(C)s1` [Compound 82] showed a pEC50 of 5.84.

For `O=S(=O)(Nc1cccc2cn[nH]c12)c1nccs1` [Compound 102], the pEC50 was under 4.52.

Compound `Cc1scnc1S(=O)(=O)Nc1ccc(C)c2c(C#N)c[nH]c12` [Compound 93] gave a pEC50 of 5.82.

`Cc1ccc(NS(=O)(=O)c2nc(C(=O)N3CCOCC3)cs2)c2[nH]cc(C#N)c12` [Compound 61] gave a negative-log EC50 (pEC50) of 5.75.

`N#Cc1c[nH]c2c(NS(=O)(=O)c3nccs3)cc(F)cc12` [Compound 132]: the pEC50 was 5.18.

In turn, `Cc1ccc(NS(=O)(=O)c2ncc(C(=O)N3CCCCC3)s2)c2[nH]cc(C#N)c12` [Compound 144] showed a negative-log EC50 (pEC50) of 5.81.

For the compound `CC(C)c1cc(S(=O)(=O)Nc2cccc3c(C#N)c[nH]c23)on1` [Compound 138], the negative-log EC50 (pEC50) was 6.37.

Turning to `N#Cc1c[nH]c2c(NS(=O)(=O)c3nc(Br)cs3)cccc12` [Compound 65], the pEC50 was 5.97.

Compound `N#Cc1c[nH]c2c(NS(=O)(=O)c3cncs3)ccc(F)c12` [Compound 199] had a negative-log EC50 (pEC50) of 6.02.

In turn, `Cc1ncc(S(=O)(=O)Nc2ccc(C)c3c(C#N)c[nH]c23)s1` [Compound 48] gave a pEC50 of 6.90.

For `Cc1ccc(NS(=O)(=O)c2nc(Br)cs2)c2[nH]cc(C#N)c12` [Compound 13], the negative logarithm of the EC50 (pEC50) was 6.53.

`Cc1ccc(NS(=O)(=O)c2nc(C(=O)N3CCC(O)C3)cs2)c2[nH]cc(C#N)c12` (stereo not shown) [Compound 76]: the pEC50 is 5.48.

`COc1ncc(S(=O)(=O)Nc2cccc3c(C#N)c[nH]c23)s1` [Compound 90] had a negative logarithm of the EC50 (pEC50) of 6.41.

`Cc1ccc(NS(=O)(=O)c2ncc(C(=O)N3CCN(C)CC3)s2)c2[nH]cc(C#N)c12` [Compound 131] had a pEC50 of 5.42.

On to `Cc1sc(S(=O)(=O)Nc2cccc3c(C#N)c[nH]c23)nc1Br` [Compound 55], for which the pEC50 is 6.52.

`Cc1ccc(NS(=O)(=O)c2cnc(C(F)F)s2)c2[nH]cc(C#N)c12` [Compound 117]: the negative logarithm of the EC50 (pEC50) is 7.00.

The compound `Cc1ccc(NS(=O)(=O)c2nc(C(=O)N3CCCC3)cs2)c2[nH]cc(C#N)c12` [Compound 60] had a pEC50 of 5.87.

The compound `O=S(=O)(Nc1cccc2c(Cl)c[nH]c12)c1nc(C(F)(F)F)cs1` [Compound 151] had a pEC50 of 6.46.

As for `Cc1nocc1S(=O)(=O)Nc1ccc(C)c2c(C#N)c[nH]c12` [Compound 86], the pEC50 was 5.68.

Turning to `CNC(=O)c1cnc(S(=O)(=O)Nc2ccc(C)c3c(C#N)c[nH]c23)s1` [Compound 126], the pEC50 is 6.02.

`N#Cc1c[nH]c2c(NS(=O)(=O)c3cnsc3)cccc12` [Compound 215] had a negative logarithm of the EC50 (pEC50) of 6.38.
